These results are taken from PubChem BioAssay AID248 (DTP/NCI, 2004).

Each structure is given as a SMILES string. Toxic doses and inconclusive results are not listed.

For this assay, the system named is L1210 leukemia ip in BDF1 mice, survival T/C. In words: NCI In Vivo Anticancer Drug Screen. Data for tumor model L1210 Leukemia (intraperitoneal) in B6D2F1 (BDF1) mice. Conditions: higher = longer survival. The method, boiled down: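 In this screen, tumor-bearing mice given compound are compared to those given vehicle, and their survival values are reported as a treated-to-control quotient.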

The mark [1] stands for this setting: endpoint: mean survival time, dose: 100.0 mg/kg/injection, schedule: Q04DX002 (ip), vehicle: saline.
Setting [2] is: endpoint: mean survival time, dose: 200.0 mg/kg/injection, schedule: Q04DX002 (ip), vehicle: saline.
[3] abbreviates: endpoint: mean survival time, dose: 400.0 mg/kg/injection, schedule: Q04DX002 (ip), vehicle: saline.
Setting [4] is: endpoint: mean survival time, dose: 100.0 mg/kg/injection, schedule: Q01DX009 (ip), vehicle: Klucel (hydroxypropylcellulose) (HPC).
Setting [5] is: endpoint: mean survival time, dose: 200.0 mg/kg/injection, schedule: Q01DX009 (ip), vehicle: Klucel (hydroxypropylcellulose) (HPC).
The mark [6] stands for this setting: endpoint: mean survival time, dose: 400.0 mg/kg/injection, schedule: Q01DX009 (ip), vehicle: Klucel (hydroxypropylcellulose) (HPC).

As for `Oc1ccccc1C=NCCN=Cc1ccccc1O.[Cu]`, the T/C (endpoint: mean survival time, dose: 100.0 mg/kg/injection, schedule: Q01DX001 (ip), vehicle: other) is 97 % of control; the T/C under setting [1] was 99 % of control; the T/C (endpoint: mean survival time, dose: 200.0 mg/kg/injection, schedule: Q01DX001 (ip), vehicle: other) is 103 % of control; the T/C under setting [2] was 99 % of control; the T/C (endpoint: mean survival time, dose: 400.0 mg/kg/injection, schedule: Q01DX001 (ip), vehicle: other) is 94 % of control; the T/C under setting [3] is 96 % of control.

For the compound `Cc1ccc(/C=N\N=C(\N)N/N=C/c2ccc(C)cc2)cc1`, the T/C is 95 % of control (endpoint: mean survival time, dose: 15.0 mg/kg/injection, schedule: Q01DX Z (ip), vehicle: carboxymethylcellulose (CMC)); 93 % of control (endpoint: mean survival time, dose: 30.0 mg/kg/injection, schedule: Q01DX Z (ip), vehicle: carboxymethylcellulose (CMC)); 87 % of control (endpoint: mean survival time, dose: 60.0 mg/kg/injection, schedule: Q01DX Z (ip), vehicle: carboxymethylcellulose (CMC)); 96 % of control (endpoint: mean survival time, dose: 120.0 mg/kg/injection, schedule: Q01DX Z (ip), vehicle: carboxymethylcellulose (CMC)); 101 % of control (endpoint: mean survival time, dose: 120.0 mg/kg/injection, schedule: Q01DX Z (oral), vehicle: carboxymethylcellulose (CMC)); 101 % of control (endpoint: mean survival time, dose: 240.0 mg/kg/injection, schedule: Q01DX Z (oral), vehicle: carboxymethylcellulose (CMC)). The T/C reads like this: (endpoint: mean survival time, dose: 480.0 mg/kg/injection, schedule: Q01DX Z (oral), vehicle: carboxymethylcellulose (CMC)) 96 % of control; (endpoint: mean survival time, dose: 960.0 mg/kg/injection, schedule: Q01DX Z (oral), vehicle: carboxymethylcellulose (CMC)) 101 % of control.

Turning to `CSc1ncnc2c1ncn2CC(=O)[C@@]1(O)CC[C@H]2[C@@H]3CCC4=CC(=O)CC[C@]4(C)[C@H]3[C@@H](O)C[C@@]21C`, the T/C by setting is: (endpoint: mean survival time, dose: 100.0 mg/kg/injection, schedule: Q01DX001 (sc), vehicle: steriod suspending solution) 99 % of control; (endpoint: mean survival time, dose: 200.0 mg/kg/injection, schedule: Q01DX001 (sc), vehicle: steriod suspending solution) 100 % of control; (endpoint: mean survival time, dose: 400.0 mg/kg/injection, schedule: Q01DX001 (sc), vehicle: steriod suspending solution) 100 % of control.

For `O=C(NC1CCCCC1)Oc1cccc(NC(=S)Nc2ccccc2)c1`, the T/C runs as follows: under setting [4], 100 % of control; under setting [5], 97 % of control; under setting [6], 92 % of control.

As to `Cc1ccc(C(=O)C2OC2c2ccccc2)cc1` (configuration not stated), the T/C is 97 % of control (endpoint: mean survival time, dose: 100.0 mg/kg/injection, schedule: Q01DX001 (ip), vehicle: Klucel (hydroxypropylcellulose) (HPC)); 95 % of control (endpoint: mean survival time, dose: 200.0 mg/kg/injection, schedule: Q01DX001 (ip), vehicle: Klucel (hydroxypropylcellulose) (HPC)); 89 % of control (endpoint: mean survival time, dose: 400.0 mg/kg/injection, schedule: Q01DX001 (ip), vehicle: Klucel (hydroxypropylcellulose) (HPC)).

`CC1(C)OC2OC(CO)C(O)C(O)C2O1` (configuration not stated): the T/C reads like this: under setting [1], 94 % of control; under setting [2], 94 % of control; under setting [3], 94 % of control.

Take `COc1cccc2c1C(=O)c1c(O)c3c(c(O)c1C2=O)CC(O)(C(C)=O)CC3OC1CC(N)C(O)C(C)O1` (configuration not stated): the T/C reads like this: (endpoint: mean survival time, dose: 2.0 mg/kg/injection, schedule: Q01DX001 (ip), vehicle: saline) 121 % of control; (endpoint: mean survival time, dose: 8.0 mg/kg/injection, schedule: Q01DX009 (ip), vehicle: saline) 98 % of control; (endpoint: mean survival time, dose: 16.0 mg/kg/injection, schedule: Q01DX001 (ip), vehicle: saline) 121 % of control; (endpoint: mean survival time, dose: 32.0 mg/kg/injection, schedule: Q01DX001 (ip), vehicle: saline) 100 % of control; (endpoint: median survival time, dose: 6.0 mg/kg/injection, schedule: Q01DX005 (ip), vehicle: other) 117 % of control; (endpoint: median survival time, dose: 6.0 mg/kg/injection, schedule: Q04DX003 (ip), vehicle: water) 122 % of control. Moreover, the T/C is 115 % of control (endpoint: median survival time, dose: 6.6 mg/kg/injection, schedule: Q01DX005 (ip), vehicle: water); 115 % of control (endpoint: median survival time, dose: 10.0 mg/kg/injection, schedule: Q04DX003 (ip), vehicle: water); 117 % of control (endpoint: median survival time, dose: 11.0 mg/kg/injection, schedule: Q01DX005 (ip), vehicle: other); 121 % of control (endpoint: median survival time, dose: 11.0 mg/kg/injection, schedule: Q01DX005 (ip), vehicle: water); 117 % of control (endpoint: median survival time, dose: 16.0 mg/kg/injection, schedule: Q01DX005 (ip), vehicle: other); 155 % of control (endpoint: median survival time, dose: 17.0 mg/kg/injection, schedule: Q04DX003 (ip), vehicle: water). Also, the T/C by setting is: (endpoint: median survival time, dose: 21.0 mg/kg/injection, schedule: Q01DX005 (ip), vehicle: other) 122 % of control; (endpoint: median survival time, dose: 31.0 mg/kg/injection, schedule: Q01DX005 (ip), vehicle: other) 121 % of control; (endpoint: median survival time, dose: 48.0 mg/kg/injection, schedule: Q04DX003 (ip), vehicle: water) 115 % of control; (endpoint: median survival time, dose: 80.0 mg/kg/injection, schedule: Q04DX003 (ip), vehicle: water) 157 % of control; (endpoint: median survival time, dose: 83.0 mg/kg/injection, schedule: Q01DX005 (ip), vehicle: water) 100 % of control; (endpoint: median survival time, dose: 133.0 mg/kg/injection, schedule: Q04DX003 (ip), vehicle: water) 115 % of control. The T/C (endpoint: median survival time, dose: 222.0 mg/kg/injection, schedule: Q04DX003 (ip), vehicle: water) was 89 % of control.

Regarding `O=C(/C=C(\OB(F)F)c1ccccc1)c1ccccc1`, the T/C (endpoint: mean survival time, dose: 50.0 mg/kg/injection, schedule: Q01DX001 (ip), vehicle: carboxymethylcellulose (CMC)) is 102 % of control; the T/C (endpoint: mean survival time, dose: 100.0 mg/kg/injection, schedule: Q01DX001 (ip), vehicle: carboxymethylcellulose (CMC)) was 94 % of control; the T/C (endpoint: mean survival time, dose: 200.0 mg/kg/injection, schedule: Q01DX001 (ip), vehicle: carboxymethylcellulose (CMC)) is 100 % of control; the T/C (endpoint: mean survival time, dose: 400.0 mg/kg/injection, schedule: Q01DX001 (ip), vehicle: carboxymethylcellulose (CMC)) is 90 % of control.

Consider `O=[N+]([O-])c1nccn1C1OC(CO)C(O)C1O` (configuration not stated), for which the T/C is, setting by setting: (endpoint: mean survival time, dose: 50.0 mg/kg/injection, schedule: Q01DX001 (ip), vehicle: saline) 98 % of control; (endpoint: mean survival time, dose: 100.0 mg/kg/injection, schedule: Q01DX001 (ip), vehicle: saline) 98 % of control; (endpoint: mean survival time, dose: 200.0 mg/kg/injection, schedule: Q01DX001 (ip), vehicle: saline) 102 % of control; (endpoint: mean survival time, dose: 400.0 mg/kg/injection, schedule: Q01DX001 (ip), vehicle: saline) 102 % of control.

Regarding `CN(C)c1ccc(C=O)c(Br)c1`, the T/C was 96 % of control under setting [4]; 96 % of control (endpoint: mean survival time, dose: 100.0 mg/kg/injection, schedule: Q04DX003 (ip), vehicle: Klucel (hydroxypropylcellulose) (HPC)); 91 % of control under setting [5]; 111 % of control (endpoint: mean survival time, dose: 200.0 mg/kg/injection, schedule: Q04DX003 (ip), vehicle: Klucel (hydroxypropylcellulose) (HPC)); 103 % of control under setting [6]; 100 % of control (endpoint: mean survival time, dose: 400.0 mg/kg/injection, schedule: Q04DX003 (ip), vehicle: Klucel (hydroxypropylcellulose) (HPC)).

As for `COc1ccc(OC)c(NCCN2C(=O)c3ccccc3C2=O)c1`, the T/C is 95 % of control (endpoint: mean survival time, dose: 100.0 mg/kg/injection, schedule: Q04DX002 (ip), vehicle: Klucel (hydroxypropylcellulose) (HPC)); 100 % of control (endpoint: mean survival time, dose: 200.0 mg/kg/injection, schedule: Q04DX002 (ip), vehicle: Klucel (hydroxypropylcellulose) (HPC)); 100 % of control (endpoint: mean survival time, dose: 400.0 mg/kg/injection, schedule: Q04DX002 (ip), vehicle: Klucel (hydroxypropylcellulose) (HPC)).

Take `CCCCCCCc1nc2nn[nH]c(=O)c2[nH]1`: the T/C (endpoint: mean survival time, dose: 100.0 mg/kg/injection, schedule: Q01DX001 (ip), vehicle: saline with Tween-80) is 94 % of control; the T/C (endpoint: mean survival time, dose: 200.0 mg/kg/injection, schedule: Q01DX001 (ip), vehicle: saline with Tween-80) is 100 % of control; the T/C (endpoint: mean survival time, dose: 400.0 mg/kg/injection, schedule: Q01DX001 (ip), vehicle: saline with Tween-80) is 90 % of control.

With `Cc1ccc(N=Cc2cc([N+](=O)[O-])ccc2O)cc1`, the T/C was 102 % of control (endpoint: mean survival time, dose: 87.5 mg/kg/injection, schedule: Q04DX003 (ip), vehicle: Klucel (hydroxypropylcellulose) (HPC)); 92 % of control (endpoint: mean survival time, dose: 175.0 mg/kg/injection, schedule: Q04DX003 (ip), vehicle: Klucel (hydroxypropylcellulose) (HPC)); 97 % of control (endpoint: mean survival time, dose: 350.0 mg/kg/injection, schedule: Q04DX003 (ip), vehicle: Klucel (hydroxypropylcellulose) (HPC)).

Turning to `CC(=NCC(=O)O)c1ccccc1`, the T/C is, setting by setting: (endpoint: mean survival time, dose: 25.0 mg/kg/injection, schedule: Q01DX009 (ip), vehicle: saline) 104 % of control; (endpoint: mean survival time, dose: 50.0 mg/kg/injection, schedule: Q01DX009 (ip), vehicle: saline) 94 % of control; (endpoint: mean survival time, dose: 100.0 mg/kg/injection, schedule: Q01DX009 (ip), vehicle: saline) 90 % of control; (endpoint: mean survival time, dose: 100.0 mg/kg/injection, schedule: Q04DX003 (ip), vehicle: saline) 100 % of control.
